Legend:
[1] = molecular target: free fatty acid receptor 1 (FFAR1)/a G-protein coupled receptor (GPR40) (Homo sapiens, UniProt O14842); conditions: cited from earlier work
[2] = in vivo; cited from earlier work
[3] = Thermal stability test (thermal stress, 80° C.); type: physicochemical; conditions: for Change in XRD pattern before and after thermal stress: 80° C. thermal stress (FIG. 11-14); for Change in properties (appearance): 80° C.; for Purity (%) Initial: before thermal stress test; for Purity (%) Initial / Purity (%) Month 1 / Purity (%) Day 6 / Purity (%) Day 14: HPLC; for Purity change (%) Month 1 − Initial / Purity (%) Month 1 / Purity (%) Day 6 / Purity (%) Day 14: sealed vial, oven 80° C.; for Purity change (%) Month 1 − Initial: 1 month vs initial; for Purity (%) Month 1: 1 month; for Purity (%) Day 6: 6 days; for Purity (%) Day 14: 14 days
Protocol: The crystal form I, crystal form II, and amorphous form samples of a compound of Chemical Formula 1 were subjected to a thermal stability test.
0.3 g of each sample was input into a 20 mL vial (prepared 0.3 g*3 ea for each sample), and the vial was sealed by closing a lid and then allowed to stand in an oven set at 80° C. Afterward, the sample was taken out after 6 days, 14 days, and 1 month had elapsed, and the changes in properties, purity, and XRD pattern before and after thermal stress conditions were examined. • Purity was measured under the following conditions using a HPLC. • Column: YMC-Pack Pro C18, 5 um, 4.6×150 mm • Column temperature: 35° C. • Flow rate: 1.0 mL/min • Injection volume: 5 uL • Wavelength: 220 nm • Mobile Phase A: 0.1% TFA in H2O/MeOH=60/40 • Mobile Phase B: MeOH/0.1% TFA in ACN=60/40 • Gradient:
• Diluent: H2O/ACN=80/20 • Run time: 40 min • Sample concentration: 0.7 mg/mL

[4] = Compressibility test (bulk/tapped density, Carr index, Hausner ratio); type: physicochemical; conditions: for Carr Index (CI): CI=100×(1−BD/TD); for Hausner ratio (Hr): Hr=TD/BD; for Description of flow: criteria of Table 5; for Bulk density BD / Tapped density TD: unit assumed
Text: Since a drug that causes a lot of static electricity has difficulty in handling and compressing to form a tablet when formulated, it is very difficult to implement a preparation with a uniform drug content. Accordingly, in relation to the static electricity-inducing capability and flowability of the three types of crystal form I, crystal form II, and the amorphous form, the compressibility of each preparation containing these drugs was examined.
The Carr index is used as an indication of the compressibility of a preparation and is related to convenience in formulation, that is, static electricity-inducing capability, flowability, and uniformity of drug content.
The Carr Index (CI) is calculated as follows. CI=100×(1−BD/TD) • BD: bulk density, TD: tapped density
The Hausner ratio (Hr) is also an indication related to the flowability of a powder or granular drug.
The Hausner ratio (Hr) is calculated as follows. Hr=TD/BD
As a result of the test, the bulk density and tapped density of the crystal form I, the crystal form II, and the amorphous form were obtained and summarized in Table 4, through which the Carr Index (CI) and Hausner ratio (Hr) were obtained, and based on the criteria in Table 5, the evaluation results for the Carr Index (CI), Hausner ratio (Hr), and flowability are shown in Table 6.

[5] = Storage stability test (formulated powder, 60° C. and 75% RH); type: physicochemical; conditions: for Purity (%) Initial: powder mix with microcrystalline cellulose and light anhydrous silicic acid; for Purity (%) Week 2 / Purity (%) Week 4 / Purity (%) Week 8 / Purity change (%) Week 8 − Initial: powder mix; for Purity (%) Week 2: 2 weeks; for Purity (%) Week 4: 4 weeks; for Purity (%) Week 8: 8 weeks; for Purity change (%) Week 8 − Initial: 8 weeks vs initial
Protocol: In order to confirm stability when the crystal form I, crystal form II, and amorphous form of a compound of Chemical Formula 1 were formulated, powder obtained by mixing 50 mg of each sample, 149 mg of microcrystalline cellulose, and 1 mg of light anhydrous silicic acid was input into a brown glass bottle and allowed to stand in a stability chamber set under conditions of 60° C. and 75% RH, and the sample was taken out after 2 weeks, 4 weeks, 8 weeks had elapsed to confirm the purity of the compound of Chemical Formula 1 over time.
When the storage period for each storage condition was reached, 35 mg of the compound of Chemical Formula 1 was taken from each sample, input into a 50 mL volumetric flask, dissolved with an appropriate amount of diluent, and marked. The resulting solution was input into a glass centrifuge tube and centrifuged at 3,000 rpm and 5° C. for 10 minutes. The sample was taken using a glass pipette and input into a HPLC vial for analysis.

[6] = after 1 month of the thermal stress test (FIG. 10)

free fatty acid receptor 1 (FFAR1)/a G-protein coupled receptor (GPR40), sequence (O14842 whole entry, species assumed): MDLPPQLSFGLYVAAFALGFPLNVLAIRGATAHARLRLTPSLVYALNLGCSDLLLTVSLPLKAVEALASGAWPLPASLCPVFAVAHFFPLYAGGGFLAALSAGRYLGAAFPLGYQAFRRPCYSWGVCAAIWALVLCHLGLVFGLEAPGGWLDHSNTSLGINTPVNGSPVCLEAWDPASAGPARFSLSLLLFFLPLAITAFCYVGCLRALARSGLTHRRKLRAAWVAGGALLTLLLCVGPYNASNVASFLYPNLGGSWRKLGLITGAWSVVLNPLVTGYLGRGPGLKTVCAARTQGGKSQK

Change in properties (appearance) [3, 6]	Purity (%) Initial [3]	Purity change (%) Month 1 − Initial [3]	Purity (%) Month 1 [3]	Purity (%) Day 6 [3]	Purity (%) Day 14 [3]	Carr Index (CI) [4]	Hausner ratio (Hr) [4]	Description of flow [4]	Bulk density BD [4]	Tapped density TD [4]	Purity (%) Initial [5]	Purity (%) Week 2 ([5]; 60° C. and 75% RH)	Purity (%) Week 4 ([5]; 60° C. and 75% RH)	Purity (%) Week 8 ([5]; 60° C. and 75% RH)	Purity change (%) Week 8 − Initial ([5]; 60° C. and 75% RH)	Structure (SMILES)	Change in XRD pattern before and after thermal stress [3]	also measured
																CC#C[C@@H](CC(=O)O)c1ccc(OCc2cccc(C3=CCC4(CC3)OCCO4)c2)cc1 [compound of Chemical Formula 1, (3S)-3-(4-(3-(1,4-dioxaspiro[4,5]dec-7-en-8-yl)benzyloxy)phenyl)hex-4-inoic acid]		Activation of FFAR1/GPR40 (increase of intracellular calcium concentration) [1]: activates; Blood sugar lowering effect [2]: excellent blood sugar lowering effect
no significant change in properties	99.53%	−3.75%	95.78%	98.73%	97.80%	54.05	2.18	Very, very poor	0.136 g/mL	0.296 g/mL	99.1%	96.2%	92.3%	88%	−11.1%	CC#C[C@@H](CC(=O)O)c1ccc(OCc2cccc(C3=CCC4(CC3)OCCO4)c2)cc1 [Crystal form II, (3S)-3-(4-(3-(1,4-dioxaspiro[4,5]dec-7-en-8-yl)benzyloxy)phenyl)hex-4-inoic acid]	shifting of specific peaks	Compressibility test results (in words) [4]: very poor; Static electricity-inducing capability ([4]; filling a die for tableting): excessively caused static electricity
	99.33%	−11.69%	87.64%	96.76%	94.35%	18.48	1.23	Fair (16-20)	0.353 g/mL	0.433 g/mL	100.6%	91.5%	86.8%	77.5%	−23.1%	CC#C[C@@H](CC(=O)O)c1ccc(OCc2cccc(C3=CCC4(CC3)OCCO4)c2)cc1 [Amorphous form, (3S)-3-(4-(3-(1,4-dioxaspiro[4,5]dec-7-en-8-yl)benzyloxy)phenyl)hex-4-inoic acid]		Change in properties (appearance) ([3]; after 6 days of the thermal stress test (FIG. 10)): turned yellow
no significant change in properties	99.40%	−3.65%	95.75%	98.67%	97.91%	13.41	1.15	Good (11-15)	0.381 g/mL	0.44 g/mL	100.2%	101.8%	100.9%	99.9%	−0.3%	CC#C[C@@H](CC(=O)O)c1ccc(OCc2cccc(C3=CCC4(CC3)OCCO4)c2)cc1 [Crystal form I, (3S)-3-(4-(3-(1,4-dioxaspiro[4,5]dec-7-en-8-yl)benzyloxy)phenyl)hex-4-inoic acid]	no significant change in XRD pattern peak	Storage stability ranking ([5]; 60° C. and 75% RH, compared among crystal form I, crystal form II, amorphous form): stablest

Source: patent US12516036B2, “Crystal form of 3-(4-(benzyloxy)phenyl)hex-4-inoic acid derivative” (HYUNDAI PHARM CO., LTD., priority 2019, dated 2026)
